Measured values reported in the SangsterLogP compilation.

Assay: method code SF-AS, from PMID: 4730594
Conditions: pH 7.0

Row | SMILES | logD
1 | O=[N+]([O-])c1cccc2c1c([N+](=O)[O-])cc[n+]2[O-] | 0.95
2 | CCCCc1ccc2c(c1)c([N+](=O)[O-])cc[n+]2[O-] | 2.08
3 | O=[N+]([O-])c1ccc2c(c1)c([N+](=O)[O-])cc[n+]2[O-] | 0.9
4 | Cc1cccc2c1c([N+](=O)[O-])cc[n+]2[O-] | 1.36
5 | Cc1cc([N+](=O)[O-])c2ccccc2[n+]1[O-] | 1.25
6 | Cc1ccc2c([N+](=O)[O-])cc[n+]([O-])c2c1 | 1.42
7 | O=[N+]([O-])c1cc[n+]([O-])c2c([N+](=O)[O-])cccc12 | 0.76
8 | O=[N+]([O-])c1cc[n+]([O-])c2ccc(Cl)cc12 | 1.41
9 | Cc1ccc2c(c1)c([N+](=O)[O-])cc[n+]2[O-] | 1.43
10 | Cc1c[n+]([O-])c2ccccc2c1[N+](=O)[O-] | 1.06
11 | O=[N+]([O-])c1cc[n+]([O-])c2ccccc12 | 1.02
12 | CC(C)(C)c1ccc2c(c1)c([N+](=O)[O-])cc[n+]2[O-] | 1.51

The next lines start with the values.

Row | logD | SMILES
13 | 1.33 | O=[N+]([O-])c1c(Cl)c[n+]([O-])c2ccccc12
14 | 1 | O=[N+]([O-])c1cc[n+]([O-])c2c(F)cccc12
15 | 0.04 | O=[N+]([O-])c1cccc2ccc[n+]([O-])c12
16 | 0.36 | O=[N+]([O-])c1ccc2ccc[n+]([O-])c2c1
17 | 1.04 | CC(=O)ON=c1ccn(OC(C)=O)c2ccccc12
18 | 0 | O/N=c1/ccn(O)c2ccccc12
19 | 1.08 | [O-][n+]1ccc(Cl)c2ccccc21
20 | 0.39 | O=[N+]([O-])c1ccc2c(ccc[n+]2[O-])c1
21 | 0.97 | CC(=O)ONc1ccnc2ccccc12
22 | 0.49 | O=[N+]([O-])c1cccc2c1ccc[n+]2[O-]
23 | -0.47 | O=c1ccn(O)c2ccccc12
24 | 0.56 | O=[N+]([O-])c1cc2ccccc2[n+]([O-])c1
25 | 1.59 | Cc1cccc2c([N+](=O)[O-])cc[n+]([O-])c12
26 | 0.12 | CS(=O)(=O)c1cc[n+]([O-])c2ccccc12
27 | -0.11 | NC(=O)Cc1cc[n+]([O-])c2ccccc12
